Results: patent US9693556B2, “Herbicidal pyridazinone derivatives” (SYNGENTA LIMITED, priority 2011, dated 2017)

How the values were obtained:
Format in all cases: in vivo
Setaria faberi (SETFA) [1] = assay: Post-emergence herbicidal glasshouse test on Setaria faberi; conditions: post-emergence; 1000 g/h; evaluated after 13 days
Outline: (§1)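 Herbicidal damage was rated 13 days after treatment on a five-point scale, where 5 denotes 80-100% and 1 denotes 0-19% damage. Spraying at 1000 g/h followed sowing by one day (pre-emergence) or eight days (post-emergence).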

Solanum nigrum (SOLNI) [2] = assay: Post-emergence herbicidal glasshouse test on Solanum nigrum; conditions: post-emergence; 1000 g/h; evaluated after 13 days
Outline: as §1

Setaria faberi (SETFA) [3] = assay: Pre-emergence herbicidal glasshouse test on Setaria faberi; conditions: pre-emergence; 1000 g/h; evaluated after 13 days
Outline: as §1

[4] = test system: Echinochloa crus-galli (ECHCG); assay: Post-emergence herbicidal glasshouse test on Echinochloa crus-galli; conditions: post-emergence; 1000 g/h; evaluated after 13 days
Outline: as §1

[5] = test system: Echinochloa crus-galli (ECHCG); assay: Pre-emergence herbicidal glasshouse test on Echinochloa crus-galli; conditions: pre-emergence; 1000 g/h; evaluated after 13 days
Outline: as §1

[6] = test system: Ipomoea hederacea (IPOHE); assay: Post-emergence herbicidal glasshouse test on Ipomoea hederacea; conditions: post-emergence; 1000 g/h; evaluated after 13 days
Outline: as §1

Solanum nigrum (SOLNI) [7] = assay: Pre-emergence herbicidal glasshouse test on Solanum nigrum; conditions: pre-emergence; 1000 g/h; evaluated after 13 days
Outline: as §1

[8] = test system: Ipomoea hederacea (IPOHE); assay: Pre-emergence herbicidal glasshouse test on Ipomoea hederacea; conditions: pre-emergence; 1000 g/h; evaluated after 13 days
Outline: as §1

[9] = test system: Amaranthus retoflexus (AMARE); assay: Post-emergence herbicidal glasshouse test on Amaranthus retoflexus; conditions: post-emergence; 1000 g/h; evaluated after 13 days
Outline: as §1

[10] = test system: Alopecurus myosuroides (ALOMY); assay: Post-emergence herbicidal glasshouse test on Alopecurus myosuroides; conditions: post-emergence; 1000 g/h; evaluated after 13 days
Outline: as §1

[11] = test system: Amaranthus retoflexus (AMARE); assay: Pre-emergence herbicidal glasshouse test on Amaranthus retoflexus; conditions: pre-emergence; 1000 g/h; evaluated after 13 days
Outline: as §1

[12] = test system: Alopecurus myosuroides (ALOMY); assay: Pre-emergence herbicidal glasshouse test on Alopecurus myosuroides; conditions: pre-emergence; 1000 g/h; evaluated after 13 days
Outline: as §1

Row | Structure (SMILES) | POST Application SETFA herbicidal damage (five point scale) (Setaria faberi (SETFA) [1]) | POST Application SOLNI herbicidal damage (five point scale) (Solanum nigrum (SOLNI) [2]) | PRE Application SETFA herbicidal damage (five point scale) (Setaria faberi (SETFA) [3]) | POST Application ECHCG herbicidal damage (five point scale) [4] | PRE Application ECHCG herbicidal damage (five point scale) [5] | POST Application IPOHE herbicidal damage (five point scale) [6] | PRE Application SOLNI herbicidal damage (five point scale) (Solanum nigrum (SOLNI) [7]) | PRE Application IPOHE herbicidal damage (five point scale) [8] | POST Application AMARE herbicidal damage (five point scale) [9] | POST Application ALOMY herbicidal damage (five point scale) [10] | PRE Application AMARE herbicidal damage (five point scale) [11] | PRE Application ALOMY herbicidal damage (five point scale) [12]
1 | Cn1ncc(-c2ccc(Cl)cc2C(F)(F)F)c(O)c1=O [Compound 1.113] | 3 (3=40-59% damage) | 5 (5=80-100% damage) | 1 (1=0-19% damage) | 2 (2=20-39% damage) | 1 (1=0-19% damage) | 5 (5=80-100% damage) | 4 (4=60-79% damage) | 2 (2=20-39% damage) | 5 (5=80-100% damage) | 2 (2=20-39% damage) | 5 (5=80-100% damage) | 1 (1=0-19% damage)
2 | Cn1ncc(-c2ccccc2Cl)c(O)c1=O [Compound 1.114] | 1 (1=0-19% damage) | 1 (1=0-19% damage) | 1 (1=0-19% damage) | 1 (1=0-19% damage) | 1 (1=0-19% damage) | 1 (1=0-19% damage) | 1 (1=0-19% damage) | 1 (1=0-19% damage) | 1 (1=0-19% damage) | 1 (1=0-19% damage) | 1 (1=0-19% damage) | 1 (1=0-19% damage)
3 | Cn1ncc(-c2ccccc2C(F)(F)F)c(O)c1=O [Compound 1.116] | 2 (2=20-39% damage) | 5 (5=80-100% damage) | 2 (2=20-39% damage) | 2 (2=20-39% damage) | 1 (1=0-19% damage) | 4 (4=60-79% damage) | 3 (3=40-59% damage) | 1 (1=0-19% damage) | 4 (4=60-79% damage) | 1 (1=0-19% damage) | 5 (5=80-100% damage) | 2 (2=20-39% damage)
4 | Cn1ncc(-c2c(Cl)cccc2Cl)c(O)c1=O [Compound 1.118] | 1 (1=0-19% damage) | 3 (3=40-59% damage) | 1 (1=0-19% damage) | 2 (2=20-39% damage) | 1 (1=0-19% damage) | 2 (2=20-39% damage) | 1 (1=0-19% damage) | 1 (1=0-19% damage) | 4 (4=60-79% damage) | 1 (1=0-19% damage) | 1 (1=0-19% damage) | 1 (1=0-19% damage)
5 | Cn1ncc(-c2ccc(S(C)(=O)=O)cc2S(C)(=O)=O)c(O)c1=O [Compound 1.119] | 5 (5=80-100% damage) | 5 (5=80-100% damage) | 5 (5=80-100% damage) | 5 (5=80-100% damage) | 5 (5=80-100% damage) | 5 (5=80-100% damage) | 5 (5=80-100% damage) | 5 (5=80-100% damage) | 5 (5=80-100% damage) | 5 (5=80-100% damage) | 5 (5=80-100% damage) | 5 (5=80-100% damage)
6 | Cc1c(-c2cnn(CC3CC3)c(=O)c2O)ccc(S(C)(=O)=O)c1C1=NOCC1 [Compound 1.120] | 5 (5=80-100% damage) | 5 (5=80-100% damage) | 4 (4=60-79% damage) | 5 (5=80-100% damage) | 5 (5=80-100% damage) | 5 (5=80-100% damage) | 4 (4=60-79% damage) | 4 (4=60-79% damage) | 5 (5=80-100% damage) | 5 (5=80-100% damage) | 5 (5=80-100% damage) | 3 (3=40-59% damage)
7 | CCCn1ncc(-c2ccc(S(C)(=O)=O)c(C3=NOCC3)c2Cl)c(O)c1=O [Compound 1.125, 5-[2-chloro-3-(4,5-dihydroisoxazol-3-yl)-4-methylsulfonyl-phenyl]-4-hydroxy-2-propyl-pyridazin-3-one] | 5 (5=80-100% damage) | 5 (5=80-100% damage) | 5 (5=80-100% damage) | 5 (5=80-100% damage) | 5 (5=80-100% damage) | 5 (5=80-100% damage) | 4 (4=60-79% damage) | 1 (1=0-19% damage) | 5 (5=80-100% damage) | 5 (5=80-100% damage) | 5 (5=80-100% damage) | 4 (4=60-79% damage)
8 | CCCn1ncc(-c2c(Cl)ccc(Cl)c2Cl)c(O)c1=O [Compound 1.128] | 2 (2=20-39% damage) | 4 (4=60-79% damage) | 1 (1=0-19% damage) | 1 (1=0-19% damage) | 1 (1=0-19% damage) | 3 (3=40-59% damage) | 1 (1=0-19% damage) | 1 (1=0-19% damage) | 1 (1=0-19% damage) | 1 (1=0-19% damage) | 1 (1=0-19% damage) | 1 (1=0-19% damage)
9 | CCCn1ncc(-c2c(Cl)cccc2Cl)c(O)c1=O [Compound 1.129] | 2 (2=20-39% damage) | 3 (3=40-59% damage) | 1 (1=0-19% damage) | 2 (2=20-39% damage) | 1 (1=0-19% damage) | 2 (2=20-39% damage) | 1 (1=0-19% damage) | 1 (1=0-19% damage) | 3 (3=40-59% damage) | 1 (1=0-19% damage) | 1 (1=0-19% damage) | 1 (1=0-19% damage)
